This note sets out measurements from ChEMBL document CHEMBL4364326, “Design, synthesis and biological evaluation of 2-(4-alkoxy-3-cyano)phenyl-6-oxo-1,6-dihydropyrimidine-5-carboxylic acid derivatives as novel xanthine oxidase inhibitors” (Eur J Med Chem, 2019).

Data set [1] concerns the target T1, Xanthine dehydrogenase/oxidase (Bos taurus, UniProt P80457). The data set can be described thus: Inhibition of bovine xanthine oxidase assessed as reduction in uric acid formation using xanthine as substrate preincubated with enzyme for 15 mins followed by substrate addition and measured every 30 secs for 2 mins by spectrophotometric method.
Data set [2] deals with T1, Xanthine dehydrogenase/oxidase. As to the kind of experiment: Potency index, Ratio of allopurinol IC50 to compound IC50 for bovine xanthine oxidase using xanthine as substrate by spectrophotometry. The following applies: cattle.
Data set [3] concerns Rattus norvegicus. As to the kind of experiment: Anti-hyperuricemic activity in potassium oxonate-induced acute hyperuricemia Sprague-Dawley rat model assessed as reduction in AUC of uric acid in serum at 5 mg/kg, ig pretreated for 1 hr followed by potassium oxonate challenge and measured at 2 hrs post drug administration (reference value: 23%). The settings on record: po. In kind it is functional.

Data set [4] deals with Rattus norvegicus. As to the kind of experiment: Anti-hyperuricemic activity in potassium oxonate-induced acute hyperuricemia Sprague-Dawley rat model assessed as reduction in AUC of uric acid in serum at 10 mg/kg, ig pretreated for 1 hr followed by potassium oxonate challenge and measured at 2 hrs post drug administration (reference value: 23%). In kind it is functional. The following applies: po.

Data set [5] in a line: Acute oral toxicity in KM mouse assessed as change in behavior at 2000 mg/kg measured for 24 hrs. The following applies: in vivo. The class given is organism-based.
Data set [6] deals with T1, Xanthine dehydrogenase/oxidase. As to the kind of experiment: Mixed type inhibition of bovine xanthine oxidase assessed as increase in Km with decrease in Vmax of the enzyme using xanthine as substrate preincubated with enzyme for 15 mins followed by substrate addition and measured every 30 secs for 2 mins by Lineweaver-Burk plot analysis. The settings on record: cattle.

The nature of data set [7]: Acute oral toxicity in KM mouse measured for 24 hrs by OCED guideline method. The following applies: in vivo.
Data set [8] relates to Rattus norvegicus. The data set can be described thus: Anti-hyperuricemic activity in potassium oxonate-induced acute hyperuricemia Sprague-Dawley rat model assessed as reduction in uric acid level in serum at 5 mg/kg, ig pretreated for 1 hr followed by potassium oxonate challenge and measured at 2 hrs post drug administration. The class given is functional, organism-based.

Activity calls are given as the source filed them. No cut-off for these calls is given here.

T1 sequence (P80457 whole entry): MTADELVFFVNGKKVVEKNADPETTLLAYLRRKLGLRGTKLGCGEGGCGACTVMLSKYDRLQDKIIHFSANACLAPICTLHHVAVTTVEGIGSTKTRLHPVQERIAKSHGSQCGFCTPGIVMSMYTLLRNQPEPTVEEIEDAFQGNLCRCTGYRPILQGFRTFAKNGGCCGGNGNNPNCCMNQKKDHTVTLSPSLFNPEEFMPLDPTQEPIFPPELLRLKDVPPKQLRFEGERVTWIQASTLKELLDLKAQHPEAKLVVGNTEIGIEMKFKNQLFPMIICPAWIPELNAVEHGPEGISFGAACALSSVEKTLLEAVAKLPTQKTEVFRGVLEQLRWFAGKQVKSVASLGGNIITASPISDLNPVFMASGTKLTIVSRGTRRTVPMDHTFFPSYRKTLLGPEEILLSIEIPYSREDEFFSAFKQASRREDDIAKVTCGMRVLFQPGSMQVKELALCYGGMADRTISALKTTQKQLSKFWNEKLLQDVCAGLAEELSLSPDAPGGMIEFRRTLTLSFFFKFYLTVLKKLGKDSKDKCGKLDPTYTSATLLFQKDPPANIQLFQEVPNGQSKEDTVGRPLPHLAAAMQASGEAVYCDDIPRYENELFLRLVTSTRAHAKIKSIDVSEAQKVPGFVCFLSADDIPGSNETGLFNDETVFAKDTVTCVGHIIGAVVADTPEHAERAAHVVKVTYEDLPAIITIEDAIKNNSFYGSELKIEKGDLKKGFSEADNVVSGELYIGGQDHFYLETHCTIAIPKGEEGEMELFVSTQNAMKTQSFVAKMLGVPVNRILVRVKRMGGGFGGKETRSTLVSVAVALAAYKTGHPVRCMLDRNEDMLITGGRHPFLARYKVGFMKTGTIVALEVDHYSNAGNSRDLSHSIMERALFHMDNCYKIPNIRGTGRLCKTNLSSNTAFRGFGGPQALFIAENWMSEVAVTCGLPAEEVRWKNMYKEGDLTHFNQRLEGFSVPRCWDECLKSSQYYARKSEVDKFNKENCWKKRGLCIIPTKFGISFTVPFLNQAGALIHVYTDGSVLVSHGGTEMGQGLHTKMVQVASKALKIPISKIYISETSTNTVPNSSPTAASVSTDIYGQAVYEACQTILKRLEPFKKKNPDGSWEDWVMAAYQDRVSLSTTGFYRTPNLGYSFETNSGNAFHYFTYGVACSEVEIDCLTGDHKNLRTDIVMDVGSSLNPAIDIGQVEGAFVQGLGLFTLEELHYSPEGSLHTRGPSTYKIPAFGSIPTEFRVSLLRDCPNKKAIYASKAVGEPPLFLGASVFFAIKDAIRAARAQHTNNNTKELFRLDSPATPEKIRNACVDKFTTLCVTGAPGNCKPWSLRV

As for `N#Cc1cc(-c2ncc(C(=O)O)c(=O)[nH]2)ccc1OCc1ccccc1`, in data set [1], the IC50 turned out to be 38.7 nM.

With `CC(C)Oc1ccc(-c2ncc(C(=O)O)c(=O)[nH]2)cc1C#N`, in data set [1], the IC50 turned out to be 91.6 nM.

With `CC(C)=CCOc1ccc(-c2ncc(C(=O)O)c(=O)[nH]2)cc1C#N`, the IC50 in data set [1] was 38.8 nM.

Take `N#Cc1cc(-c2ncc(C(=O)O)c(=N)[nH]2)ccc1OCc1ccc(Br)cc1`: in data set [1], the IC50 was found to be 27.1 nM.

Take `CC(C)CCOc1ccc(-c2ncc(C(=O)O)c(=O)[nH]2)cc1C#N`: the IC50 in data set [1] was found to be 25 nM.

For the molecule `C=C(C)COc1ccc(-c2nc(C)c(C(=O)O)c(=O)[nH]2)cc1C#N`, in data set [1], the IC50 came to 568 nM.

Turning to `C=C(C)COc1ccc(-c2ncc(C(=O)O)c(=N)[nH]2)cc1C#N`, the IC50 in data set [1] was 18.1 nM. For the same molecule, the “Ratio IC50” value in data set [2] is given as 419.

As for `C=CCOc1ccc(-c2ncc(C(=O)O)c(=O)[nH]2)cc1C#N`, the IC50 in data set [1] was 81.1 nM.

On to `Cc1nc(-c2ccc(OCC(C)C)c(C#N)c2)sc1C(=O)O` [FEBUXOSTAT], for which, in data set [3], the inhibition in vivo at 5 mg/kg came to 50.8%.

As to `C=C(C)COc1ccc(-c2ncc(C(=O)O)c(=O)[nH]2)cc1C#N`, in data set [1], the IC50 is 33.6 nM.

Regarding `Cc1ccc(COc2ccc(-c3ncc(C(=O)O)c(=N)[nH]3)cc2C#N)cc1`, the IC50 in data set [1] stood at 33.9 nM.

Consider `N#Cc1cc(-c2ncc(C(=O)O)c(=O)[nH]2)ccc1OCc1ccc(F)cc1`, for which the IC50 in data set [1] was found to be 38.2 nM.

In the case of `Cc1ccc(COc2ccc(-c3nc(C)c(C(=O)O)c(=O)[nH]3)cc2C#N)cc1`, in data set [1], the IC50 was determined as 159 nM.

Turning to `Oc1ncnc2[nH]ncc12` [ALLOPURINOL], the inhibition in vivo at 10 mg/kg in data set [4] was 38.7%.

On to `CC(C)CCOc1ccc(-c2ncc(C(=O)O)c(=N)[nH]2)cc1C#N`, for which the inhibition in vivo at 5 mg/kg in data set [3] amounted to 36.1%. In data set [5], the Activity result is recorded as “Non-Toxic”. Besides, the “inhibition (INH)” value in data set [6] is reported as “Active”. In data set [7], this molecule came in with an LD50 at 24 h of over 2000 mg/kg. Besides, the inhibition result in data set [8] is “Active”.

On to `CC(C)COc1ccc(-c2ncc(C(=O)O)c(=O)[nH]2)cc1C#N`, for which, in data set [1], the IC50 stood at 60.9 nM.

For `Cc1ccc(COc2ccc(-c3ncc(C(=O)O)c(=O)[nH]3)cc2C#N)cc1`, the IC50 in data set [1] amounted to 35.4 nM.

Consider `Cc1nc(-c2ccc(OCc3ccc(Br)cc3)c(C#N)c2)[nH]c(=O)c1C(=O)O`, for which, in data set [1], the IC50 was 185 nM.

For the molecule `N#Cc1cc(-c2ncc(C(=O)O)c(=O)[nH]2)ccc1OCc1ccc(Cl)cc1`, the IC50 in data set [1] turned out to be 49.9 nM.

In the case of `CC(C)(C)c1ccc(COc2ccc(-c3ncc(C(=O)O)c(=O)[nH]3)cc2C#N)cc1`, the IC50 in data set [1] came to 197 nM.

In the case of `N#Cc1cc(-c2ncc(C(=O)O)c(=O)[nH]2)ccc1OCc1ccc(Br)cc1`, the IC50 in data set [1] amounted to 29.8 nM.

On to `Cc1nc(-c2ccc(OCCC(C)C)c(C#N)c2)[nH]c(=O)c1C(=O)O`, for which the concentration for half-maximal inhibition (IC50) in data set [1] is 540 nM.
